From patent US12049450B2, “Pyridyloxy-carboxylate derivative and preparation method therefor, herbicidal composition, and use” (Qingdao Kingagroot Chemical Compound Co., Ltd., priority 2018, dated 2024)

Assays:
Experiment in all cases: Post-emergence test experiment (greenhouse pot, spray at 2-3 leaf stage)
Format in all cases: in vivo
Conditions in all cases: 1000 g/ha; post-emergence spray at 2-3 leaf stage; assessed after 3 weeks; fresh weight inhibition rate
[1] = tested on: Digitaria sanguinalis
Outline: (§1)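 Weed seeds sown in soil-filled pots in greenhouse, sprayed at 2-3 leaf stage (2 weeks after sowing) with compound in acetone/tween-80 plus methyl oleate emulsible concentrate (1.5 L/ha) diluted in water. Fresh-weight growth inhibition scored after 3 weeks on 0-5 scale (5: >85%, 0: <5%).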

[2] = tested on: Echinochloa crusgalli
Outline: as §1

[3] = tested on: Abutilon theophrasti
Outline: as §1

[4] = tested on: Monochoria vaginalis
Outline: as §1

[5] = tested on: Galium spurium
Outline: as §1

Structure (SMILES) | Activity level (growth inhibition rate) Digitaria sanguinalis [1] | Activity level (growth inhibition rate) Echinochloa crusgalli [2] | Activity level (growth inhibition rate) Abutilon theophrasti [3] | Activity level (growth inhibition rate) Monochoria Vaginalis [4] | Activity level (growth inhibition rate) Galium spurium [5]
CC(Oc1nc(F)c(Cl)c(N)c1Cl)C(=O)SCc1ccccc1F (stereo not shown) [Compound 221] | 5 (Level 5: the growth inhibition rate is greater than 85%) | 5 (Level 5: the growth inhibition rate is greater than 85%) | 5 (Level 5: the growth inhibition rate is greater than 85%) | 5 (Level 5: the growth inhibition rate is greater than 85%) | 5 (Level 5: the growth inhibition rate is greater than 85%)
CC(Oc1nc(F)c(Cl)c(N)c1Cl)C(=O)SCc1cccc(F)c1 (stereo not shown) [Compound 222] | 5 (Level 5: the growth inhibition rate is greater than 85%) | 5 (Level 5: the growth inhibition rate is greater than 85%) | 5 (Level 5: the growth inhibition rate is greater than 85%) | 5 (Level 5: the growth inhibition rate is greater than 85%) | 5 (Level 5: the growth inhibition rate is greater than 85%)
CC(Oc1nc(F)c(Cl)c(N)c1Cl)C(=O)SCc1ccc(F)cc1 (stereo not shown) [Compound 223] | 5 (Level 5: the growth inhibition rate is greater than 85%) | 5 (Level 5: the growth inhibition rate is greater than 85%) | 5 (Level 5: the growth inhibition rate is greater than 85%) | 5 (Level 5: the growth inhibition rate is greater than 85%) | 5 (Level 5: the growth inhibition rate is greater than 85%)
CC(Oc1nc(F)c(Cl)c(N)c1Cl)C(=O)SCc1ccccc1C#N (stereo not shown) [Compound 224] | 5 (Level 5: the growth inhibition rate is greater than 85%) | 5 (Level 5: the growth inhibition rate is greater than 85%) | 5 (Level 5: the growth inhibition rate is greater than 85%) | 5 (Level 5: the growth inhibition rate is greater than 85%) | 5 (Level 5: the growth inhibition rate is greater than 85%)
CC(Oc1nc(F)c(Cl)c(N)c1Cl)C(=O)SCc1ccc(C#N)cc1 (stereo not shown) [Compound 225] | 5 (Level 5: the growth inhibition rate is greater than 85%) | 5 (Level 5: the growth inhibition rate is greater than 85%) | 5 (Level 5: the growth inhibition rate is greater than 85%) | 5 (Level 5: the growth inhibition rate is greater than 85%) | 5 (Level 5: the growth inhibition rate is greater than 85%)
CC(Oc1nc(F)c(Cl)c(N)c1Cl)C(=O)SCc1cccc(C#N)c1 (stereo not shown) [Compound 226] | 5 (Level 5: the growth inhibition rate is greater than 85%) | 5 (Level 5: the growth inhibition rate is greater than 85%) | 5 (Level 5: the growth inhibition rate is greater than 85%) | 5 (Level 5: the growth inhibition rate is greater than 85%) | 5 (Level 5: the growth inhibition rate is greater than 85%)
CC(Oc1nc(F)c(Cl)c(N)c1Cl)C(=O)SCc1ccccc1Cl (stereo not shown) [Compound 227] | 5 (Level 5: the growth inhibition rate is greater than 85%) | 5 (Level 5: the growth inhibition rate is greater than 85%) | 5 (Level 5: the growth inhibition rate is greater than 85%) | 5 (Level 5: the growth inhibition rate is greater than 85%) | 5 (Level 5: the growth inhibition rate is greater than 85%)
CC(Oc1nc(F)c(Cl)c(N)c1Cl)C(=O)SCc1ccc(Cl)cc1 (stereo not shown) [Compound 228] | 5 (Level 5: the growth inhibition rate is greater than 85%) | 5 (Level 5: the growth inhibition rate is greater than 85%) | 5 (Level 5: the growth inhibition rate is greater than 85%) | 5 (Level 5: the growth inhibition rate is greater than 85%) | 5 (Level 5: the growth inhibition rate is greater than 85%)
CC(Oc1nc(F)c(Cl)c(N)c1Cl)C(=O)SCc1ccccc1Br (stereo not shown) [Compound 229] | 5 (Level 5: the growth inhibition rate is greater than 85%) | 5 (Level 5: the growth inhibition rate is greater than 85%) | 5 (Level 5: the growth inhibition rate is greater than 85%) | 5 (Level 5: the growth inhibition rate is greater than 85%) | 5 (Level 5: the growth inhibition rate is greater than 85%)
CC(Oc1nc(F)c(Cl)c(N)c1Cl)C(=O)SCc1cccc(Br)c1 (stereo not shown) [Compound 230] | 5 (Level 5: the growth inhibition rate is greater than 85%) | 5 (Level 5: the growth inhibition rate is greater than 85%) | 5 (Level 5: the growth inhibition rate is greater than 85%) | 5 (Level 5: the growth inhibition rate is greater than 85%) | 5 (Level 5: the growth inhibition rate is greater than 85%)
CC(Oc1nc(F)c(Cl)c(N)c1Cl)C(=O)SCc1ccc(Br)cc1 (stereo not shown) [Compound 231] | 5 (Level 5: the growth inhibition rate is greater than 85%) | 5 (Level 5: the growth inhibition rate is greater than 85%) | 5 (Level 5: the growth inhibition rate is greater than 85%) | 5 (Level 5: the growth inhibition rate is greater than 85%) | 5 (Level 5: the growth inhibition rate is greater than 85%)
CC(Oc1nc(F)c(Cl)c(N)c1Cl)C(=O)SCc1ccccc1C(F)(F)F (stereo not shown) [Compound 232] | 5 (Level 5: the growth inhibition rate is greater than 85%) | 5 (Level 5: the growth inhibition rate is greater than 85%) | 5 (Level 5: the growth inhibition rate is greater than 85%) | 5 (Level 5: the growth inhibition rate is greater than 85%) | 5 (Level 5: the growth inhibition rate is greater than 85%)
CC(Oc1nc(F)c(Cl)c(N)c1Cl)C(=O)SCc1cccc(C(F)(F)F)c1 (stereo not shown) [Compound 233] | 5 (Level 5: the growth inhibition rate is greater than 85%) | 5 (Level 5: the growth inhibition rate is greater than 85%) | 5 (Level 5: the growth inhibition rate is greater than 85%) | 5 (Level 5: the growth inhibition rate is greater than 85%) | 5 (Level 5: the growth inhibition rate is greater than 85%)
CC(Oc1nc(F)c(Cl)c(N)c1Cl)C(=O)SCc1ccc(C(F)(F)F)cc1 (stereo not shown) [Compound 234] | 5 (Level 5: the growth inhibition rate is greater than 85%) | 5 (Level 5: the growth inhibition rate is greater than 85%) | 5 (Level 5: the growth inhibition rate is greater than 85%) | 5 (Level 5: the growth inhibition rate is greater than 85%) | 5 (Level 5: the growth inhibition rate is greater than 85%)
CC(Oc1nc(F)c(Cl)c(N)c1Cl)C(=O)SCc1ccccn1 (stereo not shown) [Compound 235] | 5 (Level 5: the growth inhibition rate is greater than 85%) | 5 (Level 5: the growth inhibition rate is greater than 85%) | 5 (Level 5: the growth inhibition rate is greater than 85%) | 5 (Level 5: the growth inhibition rate is greater than 85%) | 5 (Level 5: the growth inhibition rate is greater than 85%)
CC(Oc1nc(F)c(Cl)c(N)c1Cl)C(=O)SCc1ccncc1 (stereo not shown) [Compound 236] | 5 (Level 5: the growth inhibition rate is greater than 85%) | 5 (Level 5: the growth inhibition rate is greater than 85%) | 5 (Level 5: the growth inhibition rate is greater than 85%) | 5 (Level 5: the growth inhibition rate is greater than 85%) | 5 (Level 5: the growth inhibition rate is greater than 85%)
CC(Oc1nc(F)c(Cl)c(N)c1Cl)C(=O)SCc1cccnc1 (stereo not shown) [Compound 237] | 5 (Level 5: the growth inhibition rate is greater than 85%) | 5 (Level 5: the growth inhibition rate is greater than 85%) | 5 (Level 5: the growth inhibition rate is greater than 85%) | 5 (Level 5: the growth inhibition rate is greater than 85%) | 5 (Level 5: the growth inhibition rate is greater than 85%)
